In patent US20160120832A1, “LIPID SCAVENGING IN RAS CANCERS” (MEMORIAL SLOAN KETTERING CANCER CENTER, priority 2013, published 2016):
Entries after “also recorded” stand apart in the source; their conditions may differ.

What was measured:
iBMK-myrAkt cells [1] = assay: Cell growth with SCD1 inhibitor; format: cell-based, mouse; conditions: 10% serum
Description: (§1) Cell lines were from ATCC with the following exceptions: the immortalized Baby Mouse Kidney (iBMK) cell lines were derived from primary kidney epithelial cells from Bax^−/−/Bak^−/− mice, immortalized by E1A and dominant-negative p53 expression, and transfected with control vector, human oncogenic H-Ras^V12G, or myrAKT (31); and the Human Pancreatic Nestin Expressing (HPNE) cells (a generous gift of A. Maitra) were developed from human pancreatic duct by transduction with a retroviral expression vector (pBABEpuro) containing the hTERT gene and transfected with control vector or human oncogenic K-Ras^G12D. Cell lines were routinely passaged in Dulbecco's Modified Eagle Medium (DMEM, Mediatech) with 25 mM glucose and 4 mM glutamine and supplemented with 10% Fetal Bovine Serum (HyClone), 25 IU/ml penicillin, and 25 μg/ml streptomycin (MP Biomedicals) and split at 80% confluence. Metabolic experiments were performed in 6 cm culture dishes with 3 ml of DMEM containing 10% dialyzed serum (DFBS, HyClone). For isotope labeling, glucose and glutamine were replaced with their U-^13C-labeled forms (Cambridge Isotope Labs). […]
(§2) Cell proliferation was determined with either Packed Cell Volume tubes (PCV, Techno Plastic Products AG) or with the xCELLigence system (Roche). […] Xenograft tumors were measured biweekly and tumor volume calculated as volume=(length×width^2×π/6).

iBMK-H-Ras^V12G cells [2] = assay: Cell growth with SCD1 inhibitor; format: cell-based, mouse; conditions: 10% serum, for 3 population doublings
Description: as §1, §2

SCD1 [3] = target: T1, SCD1 (Mus musculus, UniProt P13516); assay: C18:1 labeling from U-13C-glucose and U-13C-glutamine under SCD1 inhibition, iBMK cells; format: cell-based; conditions: 200 nM CAY10566, iBMK-H-Ras^V12G and iBMK-myrAkt cells, 48 h
T1 construct: endogenous in cells; host or cells: iBMK cells transfected with human H-Ras V12G or myrAkt (SCD1 itself not transfected)
T1 sequence (P13516 1-355): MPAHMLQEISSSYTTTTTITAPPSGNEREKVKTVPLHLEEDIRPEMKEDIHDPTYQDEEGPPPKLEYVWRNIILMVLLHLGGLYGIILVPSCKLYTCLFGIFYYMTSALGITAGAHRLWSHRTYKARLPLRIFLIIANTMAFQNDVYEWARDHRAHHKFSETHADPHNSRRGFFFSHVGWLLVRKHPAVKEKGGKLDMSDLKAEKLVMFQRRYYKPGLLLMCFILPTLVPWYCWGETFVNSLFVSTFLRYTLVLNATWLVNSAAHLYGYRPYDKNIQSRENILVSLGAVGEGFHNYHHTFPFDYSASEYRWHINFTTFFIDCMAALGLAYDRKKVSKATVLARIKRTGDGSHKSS
Description: as §1, with “Labs). Hypoxia experiments were performed in a hypoxic glove box (0.5% or 1% O2 as indicated, 5% CO2 and 94-94.5% N2, 37° C.) (Coy Laboratory Products). Cells and media were equilibrated in low oxygen overnight before experiment initiation. CAY10566 was from Cayman Chemical.” for “Labs).”

A549 lung cancer cells = assay: Cell growth with SCD1 inhibitor (xCELLigence real-time proliferation / culture dishes); format: cell-based, human
Description: (§3) Cell lines were from ATCC with the following exceptions: the immortalized Baby Mouse Kidney (iBMK) cell lines were derived from primary kidney epithelial cells from Bax^−/−/Bak^−/− mice, immortalized by E1A and dominant-negative p53 expression, and transfected with control vector, human oncogenic H-Ras^V12G, or myrAKT (31); and the Human Pancreatic Nestin Expressing (HPNE) cells (a generous gift of A. Maitra) were developed from human pancreatic duct by transduction with a retroviral expression vector (pBABEpuro) containing the hTERT gene and transfected with control vector or human oncogenic K-Ras^G12D. Cell lines were routinely passaged in Dulbecco's Modified Eagle Medium (DMEM, Mediatech) with 25 mM glucose and 4 mM glutamine and supplemented with 10% Fetal Bovine Serum (HyClone), 25 IU/ml penicillin, and 25 μg/ml streptomycin (MP Biomedicals) and split at 80% confluence. Metabolic experiments were performed in 6 cm culture dishes with 3 ml of DMEM containing 10% dialyzed serum (DFBS, HyClone). For isotope labeling, glucose and glutamine were replaced with their U-^13C-labeled forms (Cambridge Isotope Labs). Hypoxia experiments were performed in a hypoxic glove box (0.5% or 1% O2 as indicated, 5% CO2 and 94-94.5% N2, 37° C.) (Coy Laboratory Products). Cells and media were equilibrated in low oxygen overnight before experiment initiation. CAY10566 was from Cayman Chemical. Lipid supplements were from Avanti Polar Lipids. LPC(18:1) and LPC(18:0) were dissolved in phosphate buffered saline (PBS); MG(18:1) in methanol; and PC(16:0-18:1) in 1:9 chloroform:methanol. Organic solvents were <0.1% v/v in the medium.
(§4) Cell proliferation was determined with either Packed Cell Volume tubes (PCV, Techno Plastic Products AG) or with the xCELLigence system (Roche). Animal studies were performed following the guidelines for proper and humane use of animals in research under an IACUC-approved protocol. […] Xenograft tumors were measured biweekly and tumor volume calculated as volume=(length×width^2×π/6).

SCD1 [4] = target: T2, SCD1 (Homo sapiens, UniProt O00767); assay: C18:1 labeling from U-13C-glucose and U-13C-glutamine under SCD1 inhibition, A549 cells; format: cell-based; conditions: 200 nM CAY10566, A549 cells
T2 construct: endogenous in cells; host or cells: A549 lung cancer cells (ATCC)
T2 sequence (O00767 1-359): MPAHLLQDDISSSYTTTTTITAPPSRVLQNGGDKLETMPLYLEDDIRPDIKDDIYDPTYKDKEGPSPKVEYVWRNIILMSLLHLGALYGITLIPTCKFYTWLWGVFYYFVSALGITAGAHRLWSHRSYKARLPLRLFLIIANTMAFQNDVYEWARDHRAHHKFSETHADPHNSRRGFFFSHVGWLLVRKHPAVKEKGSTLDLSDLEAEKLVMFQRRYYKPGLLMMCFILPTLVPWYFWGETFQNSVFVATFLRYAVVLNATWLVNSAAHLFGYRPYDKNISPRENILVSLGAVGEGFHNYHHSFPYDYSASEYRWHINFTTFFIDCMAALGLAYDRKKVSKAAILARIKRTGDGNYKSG
Description: as §3, with “Lipid supplements were from Avanti Polar Lipids. LPC(18:1) and LPC(18:0) were dissolved in phosphate buffered saline (PBS); MG(18:1) in methanol; and PC(16:0-18:1) in 1:9 chloroform:methanol. Organic solvents were <0.1% v/v in the medium.” left out

iBMK-H-Ras^V12G tumors = assay: Allograft tumor growth in athymic nude mice; format: in vivo, mouse; conditions: Ras-driven tumors, 2.5 mg/kg CAY10566 p.o. BID, day 13 or 14 post therapy
Procedure: (§5) Cell proliferation was determined with either Packed Cell Volume tubes (PCV, Techno Plastic Products AG) or with the xCELLigence system (Roche). Animal studies were performed following the guidelines for proper and humane use of animals in research under an IACUC-approved protocol. To generate allografts, 1×10^7 iBMK cells were implanted in matrigel (BD Biosciences) into nu/nu athymic female mice. After establishment of palpable tumors, mice were randomized to receive 2.5 mg/kg BID CAY10566 p.o. in 0.5% methylcellulose or vehicle control. Xenograft tumors were measured biweekly and tumor volume calculated as volume=(length×width^2×π/6).

iBMK-myrAkt tumors = assay: Allograft tumor growth in athymic nude mice; format: in vivo, mouse; conditions: Akt-driven tumors, 2.5 mg/kg CAY10566 p.o. BID, day 13 or 14 post therapy
Procedure: as §5

A549 cells = assay: Packed cell volume with SCD1 inhibitor plus supplemented lipids; format: cell-based, human; conditions: 200 nM SCDi (CAY10566), 20 μM lipid, 72 h
Description: as §1, §2

cells = assay: Rescue of cells from SCD1 inhibition (discussion summary); format: cell-based; conditions: cell line not stated
iBMK cells = assay: Lipid composition and C18:1 import after LPC(18:1) supplementation; format: cell-based, mouse; conditions: 20 μM LPC(18:1)
Description: as §3, with “Lipid supplements were from Avanti Polar Lipids. LPC(18:1) and LPC(18:0) were dissolved in phosphate buffered saline (PBS); MG(18:1) in methanol; and PC(16:0-18:1) in 1:9 chloroform:methanol. Organic solvents were <0.1% v/v in the medium.” left out

iBMK-myrAkt cells [5] = assay: Packed cell volume with SCD1 inhibitor plus supplemented lipids; format: cell-based, mouse; conditions: 200 nM SCDi (CAY10566), 20 μM lipid, 72 h
Description: as §3, §4

iBMK-H-Ras^V12G cells [6] = assay: as above; format: cell-based, mouse; conditions: 200 nM SCDi (CAY10566), 20 μM lipid, 72 h
Description: as §3, §4

In the case of `Cc1nnc(-c2ccc(N3CCC(Oc4cc(F)ccc4Cl)CC3)nn2)o1` [CAY10566], the cell growth (iBMK-myrAkt cells [1]) is reported as “severely impaired”, the cell growth (iBMK-H-Ras^V12G cells [2]) is reported as “grew almost normally” and the “C18:1 labeling / SCD1 block” value (SCD1 [3]) is reported as “fully blocked; also recorded: sufficient to fully block C18:1 labeling”. For the same compound, the “cell growth in real-time cell proliferation assay” value (A549 lung cancer cells; 200 nM CAY10566, 10% serum) was “did not impair cell growth”, the “cell growth in standard cell culture conditions” value (A549 lung cancer cells; 200 nM CAY10566, first 48 h of growth) was “did not impair cell growth” and the “cell growth, sensitivity to SCD1 inhibition” value (A549 lung cancer cells; SCD1 inhibitor, 2% serum) was “sensitive”. The “C18:1 labeling from U-13C-glucose and U-13C-glutamine” value (SCD1 [4]) was “completely blocked; also recorded: blocks C18:1 labeling”, the “mean tumor volume relative to untreated tumors” value (iBMK-H-Ras^V12G tumors) was 0.67+/−0.05 and the “mean tumor volume relative to untreated tumors” value (iBMK-myrAkt tumors) was 0.51+/−0.04.
In the case of `CCCCCCCC/C=C\CCCCCCCC(=O)OC[C@@H](O)COP(=O)([O-])OCC[N+](C)(C)C` [LPC(18:1), oleoyl lysophosphatidylcholine], the “proliferation during SCD1 inhibition with supplemented lipid” value (A549 cells) is reported as “complete rescue”, the “rescue of cells from SCD1 inhibition” value (cells) is reported as “rescues cells from SCD1 inhibition” and the “desaturation index (C18:1/C18:0)” value (iBMK cells; 72 h, iBMK-H-Ras^V12G cells) is reported as “increased significantly and selectively”. The “fraction of C18:1 derived from import” value (iBMK cells; both iBMK-H-Ras^V12G and iBMK-myrAkt cells) was “increasing”, the “proliferation during SCD1 inhibition with supplemented lipid” value (iBMK-myrAkt cells [5]) was “only partially” and the “proliferation / cell growth during SCD1 inhibition with supplemented lipid” value (iBMK-H-Ras^V12G cells [6]) was “fully restored proliferation”.
oleolyl-monoacylglycerol [MG(18:1)] was tested, and the “proliferation / cell growth during SCD1 inhibition with supplemented lipid” value (iBMK-H-Ras^V12G cells [6]) was “restored cell proliferation”.
